The values that follow come from PMC6365485 (British Journal of Pharmacology, 2019).

pKi: −log10 of the molar value.

Assay [1] concerns the target T1, human recombinant DP1 receptor (Homo sapiens, UniProt Q13258).
T1 sequence (Q13258 1-359): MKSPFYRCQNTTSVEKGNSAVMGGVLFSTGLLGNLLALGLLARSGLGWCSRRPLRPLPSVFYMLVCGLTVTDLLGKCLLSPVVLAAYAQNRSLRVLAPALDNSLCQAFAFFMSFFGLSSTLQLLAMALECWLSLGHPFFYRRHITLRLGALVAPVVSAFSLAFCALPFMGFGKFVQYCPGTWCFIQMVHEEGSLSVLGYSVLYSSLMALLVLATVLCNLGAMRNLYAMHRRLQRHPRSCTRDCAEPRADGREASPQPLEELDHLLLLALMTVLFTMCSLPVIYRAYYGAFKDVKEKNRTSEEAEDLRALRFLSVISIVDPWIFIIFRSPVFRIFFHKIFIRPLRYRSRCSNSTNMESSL
The assay can be described thus: [3H]PGD2 displacement, membranes. Format: binding.

Assay [2] deals with T2, human recombinant EP1 receptor (Homo sapiens, UniProt P34995).
T2 sequence (P34995 1-402): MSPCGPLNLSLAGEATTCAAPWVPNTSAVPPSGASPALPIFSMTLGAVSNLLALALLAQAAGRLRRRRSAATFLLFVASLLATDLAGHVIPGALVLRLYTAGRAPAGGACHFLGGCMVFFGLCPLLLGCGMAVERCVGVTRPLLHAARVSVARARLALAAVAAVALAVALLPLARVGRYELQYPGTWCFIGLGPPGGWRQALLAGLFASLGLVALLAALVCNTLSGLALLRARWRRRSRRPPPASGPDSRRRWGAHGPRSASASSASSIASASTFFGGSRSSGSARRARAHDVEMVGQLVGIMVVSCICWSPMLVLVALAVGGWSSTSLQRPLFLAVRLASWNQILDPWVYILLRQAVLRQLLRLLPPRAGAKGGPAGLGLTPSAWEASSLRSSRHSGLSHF
The assay can be described thus: [3H]PGE2 displacement, membranes. Format: binding.

For orientation: pKi means the negative decadic logarithm of the Ki, by convention in mol/L. With `CCCCC[C@H](O)/C=C/[C@H]1C(=O)C[C@H](O)[C@@H]1C/C=C\CCCC(=O)O` [PGD2], in assay [1], the pKi was 8.60.
Turning to `CCCCC[C@H](O)/C=C/[C@H]1[C@H](O)CC(=O)[C@@H]1C/C=C\CCCC(=O)O` [PGE2], the pKi in assay [2] is 7.30.
